Test [1] concerns T-lymphoblastic leukemia cell line CEM. The test can be described thus: Calcein AM cytotoxicity assay, CEM. Type of test: cell-based. The conditions noted are these: Calcein AM assay, 72 h; means ± SD, three independent experiments in triplicate. As to the method:
(§1) Stock solutions (10 mmol/l) of the tested compounds were prepared by dissolving relevant quantity of the substance in DMSO. […] Calcein AM was obtained from Molecular Probes (Invitrogen Corporation, CA, USA).
(§2) All cell lines were cultured in DMEM medium (Sigma, Mo., USA). Medium was supplemented with 10% heat-inactivated fetal bovine serum, 2 mmol/l L-glutamine and 1% penicillin-streptomycin. The cell lines were maintained under standard cell culture conditions at 37° C. and 5% CO2 in a humid environment. Cells were subcultured twice or three times a week using the standard trypsinization procedure.
(§3) All cell lines were cultured in DMEM medium (Sigma, Mo., USA) supplemented with 10% fetal calf serum, 2 mM glutamine, 100 U/ml penicillin and 100 μg/ml streptomycin, at 37° C. in a fully humidified atmosphere containing 5% CO2. Suspensions of these lines (ca. 1.0×10^5 cells/ml) were placed in 96-well microtitre plates and after 3 h of stabilization the tested compounds were added in serially diluted concentrations. Saponins were dissolved in dimethylsulfoxide (DMSO) before addition to cultures. Control cultures were treated with DMSO alone. The final concentration of DMSO in the reaction mixtures never exceeded 0.6%. Four-fold dilutions of the intended test concentration were added at time zero in 20 μl aliquots to the microtitre plate wells. Usually, each test compound was evaluated at six 4-fold dilutions and in routine testing; the highest well concentration was 50 μM, although this varied in a few cases, depending on the test compound. After 72 h of culture, the cells were incubated with Calcein AM solution (Molecular Probes) for 1 h. The fluorescence of viable cells was quantified using a Fluoroscan Ascent instrument (Microsystems).

For test [2], the system named is breast carcinoma cell line MCF7. Nature of the test: Calcein AM cytotoxicity assay, MCF7. Type of test: cell-based, human. The conditions noted are these: Calcein AM assay, 72 h; means ± SD, three independent experiments in triplicate. As to the method: as §1, §2, §3
For test [3], the system named is malignant melanoma cell line G-361. Nature of the test: Calcein AM cytotoxicity assay, G-361. The class given is cell-based, human. The conditions noted are these: 72 h, means ± SD, three independent experiments in triplicate. As to the method: as §1, §2, §3
Test [4] has as its system cervical carcinoma cell line HeLa. Nature of the test: Calcein AM cytotoxicity assay, HeLa. The conditions noted are these: 72 h, means ± SD, three independent experiments in triplicate. Type of test: cell-based. As to the method:
as §1, §2, §3

In test [5] the test system is lung carcinoma cell line A549. The test can be described thus: Calcein AM cytotoxicity assay, A549. The class given is cell-based, human. The conditions noted are these: 72 h, means ± SD, three independent experiments in triplicate, read-out: IC50, A 549. As to the method:
as §1, §2, §3

The test system of test [6] is normal human fibroblasts BJ. Nature of the test: Calcein AM cytotoxicity assay, normal fibroblasts BJ. Type of test: cell-based. The conditions noted are these: 72 h, means ± SD, three independent experiments in triplicate. Here is the method: as §1, §2, §3
In test [7] the test system is caspase-3/7 in CEM cells. Nature of the test: Activity of caspases-3/7 in treated CEM cells (Ac-DEVD-AMC substrate). The class given is cell-based. The conditions noted are these: for activity of caspases-3/7 compared with untreated control: 24 h, 3 (1; 2.5; 5 μM), 6 (0.1; 0.25; 0.5 μM). Here is the method: The CEM cells treated with the novel compounds were harvested by centrifugations and homogenized in an extraction buffer (10 mM KCl, 5 mM HEPES, 1 mM EDTA, 1 mM EGTA, 0.2% CHAPS, inhibitors of proteases, pH 7.4) on ice for 20 min. The homogenates were clarified by centrifugation at 10,000 g for […] at 4° C., the proteins were quantified by the Bradford method and diluted to the same concentration. Lysates were then incubated for 1 h with […] Ac-DEVD-AMC as a substrate (Sigma-Aldrich) in an assay buffer (25 mM PIPES, 2 mM EGTA, 2 mM MgCl2, 5 mM DTT, pH 7.3). For negative controls, the lysates were supplemented with […] Ac-DEVD-CHO as a caspase-3/7 inhibitor (Sigma-Aldrich). The fluorescence of the product was measured using a Fluoroskan Ascent microplate reader (Labsystems) at 346/442 nm (ex/em). Here, we determined the activity of caspase-3/7 in CEM cells exposed to 3, 6 or 7 using a fluorogenic substrate Ac-DEVD-AMC and/or caspase 3/7 inhibitor […]. Cells were treated in a dose-dependent manner with compounds 3 (1; 2.5; 5 μM), 6 (0.1; 0.25; 0.5 μM) and 7 (5; 7.5; 10 μM).

Test [8] has as its system CEM cells. Nature of the test: Flow cytometry cell cycle and apoptosis (subG1) analysis. Type of test: cell-based. The conditions noted are these: for distribution of CEM cells in cell cycle phases (FIG. 2): increasing concentrations. Here is the method: The leukemia cancer CEM cells were trypsinized, seeded in 6 well plates, and immediately incubated with the respective compounds. […] Triton X-100, and 50 μg/ml propidium iodide in PBS. DNA content was assessed with a flow cytometer (Cell Lab Quanta SC—MPL, Beckman Coulter, Calif., USA). In a histogram analysis, distribution of cells into the subG1 (“apoptotic cells”), the G0/G1, S and the G2/M peak was quantified using software MultiCycle AV (Phoenix Flow Systems, CA, USA).
On the technique in general: A flow cytometer gives signals particle by particle.

In test [9] the test system is leukemia cells (CEM). The test can be described thus: Western blot analysis of apoptosis related proteins. Type of test: cell-based. The conditions noted are these: 24 h. Here is the method: The cells were seeded in a density 2.2×10^4 cells/cm^2 using culture medium in 100-mm culture dishes. Immediately the cells were treated by novel saponins: 3 (1; 2.5; 5 μM), 6 (0.1; 0.25; 0.5 μM) and 7 (5; 7.5; 10 μM). DMSO was used as a vehicle for controls. After 24 h treatment, the cells were washed three times with cold PBS (10 mM, pH 7.4) and lysed in ice-cold protein extract RIPA buffer (20 mM Tris-HCl, pH 7.4, 5 mM EDTA, 2 mM EGTA, 100 mM NaCl, 2 mM NaF, 0.2% Nonidet P-40, 30 mM PMSF, 1 mM DTT, […] of aprotinin and leupeptin). The lysate was collected into microfuge tube and incubated on ice for 1 h. It was then cleared by centrifugation at 10,000×g for […] at 4° C., and supernatant was collected, aliquoted, and stored at −80° C. Proteins in lysates were quantified by the Bradford method and then diluted with Laemmli electrophoresis buffer. Proteins were then separated on 10% or 12% SDS-polyacrylamide gels, transferred onto nitrocellulose membranes (Bio-Rad Laboratories, CA, USA) and stained with Ponceau S to check equal protein loading. The membranes were blocked with 5% (w/v) non-fat dry milk and 0.1% Tween-20 in PBS for 2 h and probed with the specific primary antibodies overnight. After washing in PBS and PBS with 0.1% Tween-20, the membranes were probed with horseradish peroxidase-conjugated secondary antibodies and visualized with chemiluminescent detection reagent West Pico Supersignal (Thermo Fisher Scientific, Rockford, USA). To confirm equal protein loading, immunodetection was performed with the anti-α-tubulin monoclonal antibody. The experiments were repeated three times. The protein expressions in treated cells were compared to untreated controls.

Molecules are shown by their SMILES.

As to `COc1ccc(C(=O)O[C@H]2[C@H](O[C@@H]3[C@@H](OC(C)=O)[C@H](O[C@H]4C[C@H]5[C@@H]6CC=C7C[C@@H](O)CC[C@]7(C)[C@H]6CC[C@]5(C)[C@@]4(O)[C@H](C)COCc4ccccc4)OC[C@@H]3O)OC[C@@H](O)[C@@H]2O)cc1` [Compound 1, (20R)-21-Benzyloxy-20-methylpregn-5-ene-3β,16β,17α-triol 16-O-{2-O-(4-methoxybenzoyl)-β-D-xylopyranosyl-(1→3)-2′-O-acetyl-α-L-arabinopyranoside}], the IC50 was 20 ± 1 nM in test [1]; 600 ± 100 nM in [2]; 750 ± 80 nM in [3]; 200 ± 10 nM in test [4]; 100 ± 50 nM in [5]; 300 ± 40 nM in [6].
With `COc1ccc(C(=O)O[C@H]2[C@H](O[C@@H]3[C@@H](OC(C)=O)[C@H](O[C@H]4C[C@H]5[C@@H]6CC=C7C[C@@H](O)CC[C@]7(C)[C@H]6CC[C@]5(C)[C@@]4(O)[C@H](C)COC(=O)c4ccccc4)OC[C@@H]3O)OC[C@@H](O)[C@@H]2O)cc1` [Compound 2, (20R)-21-O-benzoyl-20-methylpregn-5-ene-3β,16β,17α,21-tetraol 16-O-{2-O-(4-methoxybenzoyl)-β-D-xylopyranosyl-(1→3)-2′-O-acetyl-α-L-arabinopyranoside}], the IC50 in test [1] is 70 ± 10 nM; in test [2], 700 ± 100 nM; in test [3] it was 1660 ± 900 nM; in [4], 240 ± 60 nM; in [5], 170 ± 40 nM; in test [6], 100 ± 20 nM.
As for `COc1ccc(C(=O)OCC(C)C2(O)C(OC3OCC(O)C(OC4OCC(O)C(O)C4OC(=O)c4ccc(OC)cc4)C3OC(C)=O)CC3C4CC=C5CC(O)CCC5(C)C4CCC32C)cc1` [Compound 3, (20R)-21-O-(4-methoxybenzoyl)-20-methylopregn-5-ene-3β,16β,17α,21-tetraol 16-O-{2-O-(4-methoxybenzoyl)-β-D-xylopyranosyl-(1→3)-2′-O-acetyl-α-L-arabinopyranoside], in [7], the “activity of caspases-3/7 compared with untreated control” value is reported as “twofold enhancement” and the “caspase-3/7 activity after treatment with higher concentrations” value is reported as “caspase-3/7 activity decreased”. Further, in test [8] (CEM cell line after treatment), the “subG1 phase of the cell cycle (apoptotic cells)” value is “increase in subG1 phase”. Moreover, the “distribution of CEM cells in cell cycle phases (FIG. 2)” value in test [8] was “increased the number of S-phase and G2/M cells with concomitant decrease of G0/G1 cells in dose-dependent manner”. Further, in [8] (CEM, 24 h, 0.5 μM), the “Apoptosis subG1” value is 11%, the “Cell cycle distribution G0/G1” value stood at 17%, the “Cell cycle distribution G2/M” value turned out to be 26% and the “Cell cycle distribution S” value turned out to be 46%. Further, in [9] (dose-dependent (FIG. 5)), the “PARP (Western blot)” value is reported as “cleavage of PARP” and the “caspase-3 (Western blot)” value was “accumulation of caspase-3”.
`CCCCC(=O)OC[C@@H](C)[C@@]1(O)[C@@H](O[C@@H]2OC[C@H](O)[C@H](O[C@@H]3OC[C@@H](O)[C@H](O)[C@H]3OC(=O)c3ccc(OC)cc3)[C@H]2OC(C)=O)C[C@H]2[C@@H]3CC=C4C[C@@H](O)CC[C@]4(C)[C@H]3CC[C@@]21C` [Compound 4, (20R)-21-O-pentanoyl-20-methylpregn-5-ene-3β,16β,17α,21-tetraol 16-O-{2-O-(4-methoxybenzoyl)-β-D-xylopyranosyl-(1→3)-2′-O-acetyl-α-L-arabinopyranoside}]: the half-maximal inhibitory concentration (IC50) in test [1] was 60 ± 10 nM; in [2], 500 ± 70 nM; in [3] it was 390 ± 60 nM; in [4] it was 170 ± 10 nM; in test [5], 160 ± 40 nM; in [6], 500 ± 60 nM.
For `CCCCCCC(=O)OC[C@@H](C)[C@@]1(O)[C@@H](O[C@@H]2OC[C@H](O)[C@H](O[C@@H]3OC[C@@H](O)[C@H](O)[C@H]3OC(=O)c3ccc(OC)cc3)[C@H]2OC(C)=O)C[C@H]2[C@@H]3CC=C4C[C@@H](O)CC[C@]4(C)[C@H]3CC[C@@]21C` [Compound 5, (20R)-21-O-Heptanoyl-20-methylpregn-5-ene-3β,16β,17α,21-tetraol 16-O-{2-O-(4-methoxybenzoyl)-β-D-xylopyranosyl-(1-3)-2′-O-acetyl-α-L-arabinopyranoside}], the IC50 was 10 ± 2 nM in test [1]; 400 ± 40 nM in test [2]; 1280 ± 200 nM in test [3]; 30 ± 2 nM in [4]; 20 ± 5 nM in test [5]; 600 ± 70 nM in [6].
With `C=CCCCCCCCCC(=O)OC[C@@H](C)[C@@]1(O)[C@@H](O[C@@H]2OC[C@H](O)[C@H](O[C@@H]3OC[C@@H](O)[C@H](O)[C@H]3OC(=O)c3ccc(OC)cc3)[C@H]2OC(C)=O)C[C@H]2[C@@H]3CC=C4C[C@@H](O)CC[C@]4(C)[C@H]3CC[C@@]21C` [Compound 6, (20R)-21-O-(Undec-10-enoyl)-20-methylpregn-5-ene-3β,16β,17α,21-tetraol 16-O-{2-O-(4-methoxybenzoyl)-β-D-xylopyranosyl-(1→3)-O-acetyl-α-L-arabinopyranoside}], in [7], the “activity of caspases-3/7 compared with untreated control” value is “twofold enhancement” and the “caspase-3/7 activity after treatment with higher concentrations” value is recorded as “caspase-3/7 activity decreased”. The “distribution of CEM cells in cell cycle phases (FIG. 2)” value in test [8] is “increased the number of S-phase and G2/M cells with concomitant decrease of G0/G1 cells in dose-dependent manner”. Also, in test [9] (dose-dependent (FIG. 5)), the “PARP (Western blot)” value is on record as “cleavage of PARP”, the “antiapoptotic Bcl-2 protein” value is listed as “increased”, the “caspase-3 (Western blot)” value was “accumulation of caspase-3” and the “expression of tumour suppressor protein p53” value is “enhanced expression”. Moreover, the “phosphorylation of pRb S780” value in test [9] (same concentrations (FIG. 5)) is on record as “increase of phosphorylation of pRb S780”.

The IC50 is the concentration at which inhibition is half-maximal.

Source of the values: patent US8552161B2, “Saponin compounds, methods of preparation thereof, use thereof and pharmaceutical compositions” (Uniwersytet W Bialymstoku, priority 2009, dated 2013).
